From patent US20150299345A1, “ANTIBACTERIAL MONOMERS, ANTIBACTERIAL RESINS AND DENTAL COMPOSITES COMPRISING THE ANTIBACTERIAL RESINS” (UNIVERSITY OF MARYLAND, BALTIMORE, priority 2012, published 2015)
Like-named read-outs stand apart in the source and are kept apart here.

Assays:
[1] = tested on: Human gingival fibroblasts (HGF); assay: Cytotoxicity of monomers via MTT assay; format: cell-based; conditions: for cytotoxicity / cell viability compared with BisGMA: human gingival fibroblasts, FIG. 1
Protocol: Human gingival fibroblasts (HGF, ScienCell) were cultured in a fibroblast medium (FM). […] Then, HGF were seeded in 96-well plates at 5,000 cells per well. […] After 4 h, the unreacted dye was removed and 150 μL, of dimethyl sulfoxide was added. Absorbance was measured via the microplate reader at 492 nm. […] Cells were also live/dead stained (Molecular Probes) and examined with fluorescence microscopy (TE2000-S, Nikon) as shown in FIG. 1B.

[2] = tested on: S. mutans (ATCC 700610, UA159); assay: MIC and MBC by serial microdilution assays; format: cell-based, Streptococcus mutans; conditions: for antibacterial potency (MIC and MBC) compared with another agent: comparison in words; for MBC / MIC: 48 h, triplicate
Protocol: MIC and MBC were measured using S. mutans (ATCC 700610, UA159, American Type Culture, Manassas, Va.). S. mutans is a cariogenic, aerotolerant anaerobic bacterium and the primary causative agent of dental caries (Loesche 1986). MIC and MBC were determined via serial microdilution assays (Imazato S et al. 2006; Huang L et al. 2011). Unpolymerized DMAHM or DMADM monomer was dissolved in brain heart infusion (BHI) broth (BD, Franklin Lakes, N.J.) to give a final concentration of 200 mg/mL. From these starting solutions, serial two fold dilutions were made into 1 mL volumes of BHI broth. 15 μL of stock S. mutans was added to 15 mL of BHI broth with 0.2% sucrose and incubated at 37° C. with 5% CO2. Overnight cultures of S. mutans were adjusted to 2×10^6 CFU/mL with BHI broth, and 50 μL of inocula was added to each well of a 96-well plate containing 50 μL of a series of antibacterial monomer dilution broths. BHI broth with 1×10^6 CFU/mL bacteria suspension without antibacterial agent served as negative control. Chlorhexidine diacetate (CHX) (Sigma, St. Louis, Mo.) served as positive control. The previously-synthesized QADM (Antonucci J M et al. 2012; Cheng L et al. 2012a) served as an antibacterial monomer control. After incubation at 37° C. in 5% CO2 for 48 h, the wells were read for turbidity, referenced by the negative and positive control wells. MIC was determined as the endpoint (the well with the lowest antibacterial agent concentration) where no turbidity could be detected with respect to the controls (Huang L et al. 2011). To determine MBC, an aliquot of 50 μL from each well without turbidity was inoculated on BHI agar plates and incubated at 37° C. in 5% CO2 for 48 h. MBC was determined as the lowest concentration of antibacterial agent that produced no colonies on the plate. The tests were performed in triplicate (Huang L et al. 2011).

[3] = tested on: dental plaque microcosm biofilms; assay: Live/dead assay of biofilms (CLSM); format: cell-based, human saliva inoculum; conditions: 48-h biofilms on composite disks, FIG. 5
Protocol: The dental plaque microcosm biofilm model used human saliva as inoculum. Saliva was collected from a healthy adult donor following a previous study (Cheng L et al. 2012b). The donor had natural dentition without active caries or periopathology, and without the use of antibiotics within the last 3 months. […] Stimulated saliva was collected during parafilm chewing and kept on ice. The saliva was diluted in sterile glycerol to a concentration of 70% saliva and 30% glycerol (Cheng L et al. 2012b), and stored at −80° C. The saliva-glycerol stock was added, with 1:50 final dilution, into the growth medium as inoculum. The growth medium contained mucin (type II, porcine, gastric) at a concentration of 2.5 g/L; bacteriological peptone, 2.0 g/L; tryptone, 2.0 g/L; yeast extract, 1.0 g/L; NaCl, 0.35 g/L, KCl, 0.2 g/L; CaCl2, 0.2 g/L; cysteine hydrochloride, 0.1 g/L; haemin, 0.001 g/L; vitamin K1, 0.0002 g/L, at pH 7 (McBain A J 2009). Composite disks were sterilized in ethylene oxide (Anprolene AN 74i, Andersen, Haw River, N.C.). 1.5 mL of inoculum was added to each well of 24-well plates with a composite disk, and incubated in 5% CO2 at 37° C. for 8 h. […] Live bacteria were stained with Syto 9 to produce a green fluorescence, and bacteria with compromised membranes were stained with propidium iodide to produce a red fluorescence. […]

[4] = unpolymerized monomer in BHI broth

Row | MIC [2, 4] [µg/mL] | MIC ([2]; Streptococcus mutans, ATCC700610, unpolymerized monomer in BHI broth, read-out: MIC) [µg/mL] | Compound | cytotoxicity / cell viability compared with BisGMA [1] | antibacterial potency (MIC and MBC) compared with another agent [2] | MBC [2, 4] [µg/mL] | fibroblast viability ([1]; at each monomer concentration (0.5-100 μg/mL), 2 d, n=6, FIG. 1) | antibacterial activity by live/dead staining of biofilms [3] | MBC ([2]; Streptococcus mutans, ATCC700610, unpolymerized monomer in BHI broth, read-out: MBC) [µg/mL]
1 | 1560 |  | C=C(C)C(=O)OCC[N+](C)(C)CCCCCC.[Br-] [DMAHM] |  | more potent than the previously-synthesized QADM | 3130 |  |  | 
2 | 0.305 |  | C=C(C)C(=O)OCC[N+](C)(C)CCCCCCCCCCCCCCCC.[Br-] [DMAHDM, dimethylamino hexadecyl methacrylate] |  | an order of magnitude more potent than those for chain length 12 | 0.61 |  |  | 

Further lines, the compound ahead of its results:

Row | Compound | MIC [2, 4] [µg/mL] | MIC ([2]; Streptococcus mutans, ATCC700610, unpolymerized monomer in BHI broth, read-out: MIC) [µg/mL] | cytotoxicity / cell viability compared with BisGMA [1] | antibacterial potency (MIC and MBC) compared with another agent [2] | MBC [2, 4] [µg/mL] | fibroblast viability ([1]; at each monomer concentration (0.5-100 μg/mL), 2 d, n=6, FIG. 1) | antibacterial activity by live/dead staining of biofilms [3] | MBC ([2]; Streptococcus mutans, ATCC700610, unpolymerized monomer in BHI broth, read-out: MBC) [µg/mL]
3 | C=C(C)C(=O)OCCCCCCCCCCCC[n+]1ccccc1.[Br-] [MDPB, reference compound] |  |  | less cytotoxic |  |  |  |  | 
4 | C=C(C)C(=O)OCC[N+](C)(C)CCCCCCCCCCCC.[Br-] [DMADDM, dimethylamino dodecyl methacrylate] | 6.10 |  | less cytotoxic | more than two orders of magnitude lower than those of MDAHM | 12.21 | highest fibroblast viability | responsible for the antibacterial activity | 
5 | C=C(C)C(=O)OCC[N+](C)(C)CCOC(=O)C(=C)C.[Br-] [QADM, bis(2-methacryloyloxy-ethyl) dimethyl-ammonium bromide, reference compound] |  | 12500 |  |  |  |  |  | 25000
6 | CC(=O)O.CC(=O)O.NC(=N\CCCCCC/N=C(N)/N=C(\N)Nc1ccc(Cl)cc1)/N=C(\N)Nc1ccc(Cl)cc1 [CHX, Chlorhexidine diacetate, reference compound] | 1.95 |  |  |  | 3.91 |  |  | 
